Drawing on PubChem BioAssay (NCI), this text covers TGI and GI50 for 14 compounds.

Test systems include MALME-3M melanoma; NCI-H23 lung; OVCAR-3 ovarian; PC-3 prostate; SF-295 CNS; SN12C renal; U251 CNS; HL-60(TB) leukemia; SF-268 CNS; SNB-75 CNS.
What all share (assay): DTP human tumour cell line panel, 48 h

“And” between values parts separate entries of the source, which are not always exact repeats. Equal values may be shown once.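 Exposure lasted 48 hours, with cells grown in 96-well plates and compounds tested at five concentrations. GI50 is the concentration that inhibits growth by half. TGI denotes the concentration required for complete inhibition of growth.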 Bounds are passed on as bounds.

On to `O=CC12CCCN1CCC2`, for which the total growth inhibition concentration (TGI) in the experiment with MALME-3M melanoma, in the experiment on NCI-H23 lung, with OVCAR-3 ovarian, in the experiment on PC-3 prostate, in the experiment with SF-295 CNS and with SN12C renal was over 100 µM throughout. In addition, the TGI – broadly, the concentration at which net growth stops – in the experiment on U251 CNS is over 100 µM.

In the case of `CCCCCCCCCCCC1=C(O)C(=O)C=C(O)C1=O`, the TGI in the experiment on HL-60(TB) leukemia was found to be 12.6 µM; with MALME-3M melanoma, 16.5 µM; in the experiment with NCI-H23 lung it was 29.7 µM; in the experiment with OVCAR-3 ovarian, 14.4 µM; in the experiment with SF-268 CNS, 18 µM; with SF-295 CNS it was 17.4 µM. For the same compound, the values for the TGI in the experiment with SN12C renal, in the experiment on SNB-75 CNS and in the experiment on U251 CNS were 12.9 µM, 17.7 µM and 22.1 µM, respectively.

In the case of `COc1ccc(Sc2ccccc2[N+](=O)[O-])cc1`, the TGI with HL-60(TB) leukemia was 20.8 µM; with MALME-3M melanoma, over 100 µM; with NCI-H23 lung, over 100 µM; in the experiment on OVCAR-3 ovarian it was 58.9 µM; in the experiment with SF-268 CNS it was over 100 µM; with SN12C renal, over 100 µM. The total growth inhibition concentration (TGI) in the experiment on SNB-75 CNS stood at 19.7 µM; in the experiment with U251 CNS it was 41.3 µM.

On to `Cn1c(=O)c2c(n(C)c1=O)n1c(=O)c3ccccc3nc1n2C`, for which the TGI with NCI-H23 lung, in the experiment with OVCAR-3 ovarian, in the experiment on PC-3 prostate, in the experiment with SF-268 CNS, with SF-295 CNS and with SN12C renal was over 100 µM throughout. The TGI with SNB-75 CNS and in the experiment with U251 CNS was over 100 µM in each case.

In the case of `Nc1nc(N)c2ncn(Cc3ccccc3)c2n1`, the TGI in the experiment with MALME-3M melanoma, in the experiment with NCI-H23 lung, in the experiment on OVCAR-3 ovarian, in the experiment on PC-3 prostate, with SF-268 CNS and with SF-295 CNS was over 100 µM in each case. In addition, the values for the TGI in the experiment with SN12C renal, in the experiment on SNB-75 CNS and with U251 CNS were over 100 µM, 0.937 µM and over 100 µM, respectively.

Take `Cn1c(=O)c(C#N)c(O)c2cc3ccccc3nc21`: the TGI in the experiment with HL-60(TB) leukemia, in the experiment with MALME-3M melanoma, with NCI-H23 lung, with SF-268 CNS, in the experiment on SF-295 CNS and with SN12C renal was over 100 µM throughout. Besides, the total growth inhibition concentration (TGI) in the experiment with SNB-75 CNS and in the experiment with U251 CNS was over 100 µM in each case.

As to `FC(F)(Sc1nc2ccccc2[nH]1)c1nc2ccccc2o1`, the TGI with MALME-3M melanoma, with NCI-H23 lung, with OVCAR-3 ovarian, with PC-3 prostate, in the experiment with SF-268 CNS and in the experiment on SF-295 CNS was over 100 µM throughout. For the same compound, the TGI with SN12C renal, in the experiment with SNB-75 CNS and in the experiment on U251 CNS was over 100 µM in each case.

`NS(=O)(=O)c1cc2c(cc1Cl)NC(C(=O)NNC(=O)c1ccncc1)=NS2(=O)=O`: the TGI in the experiment on HL-60(TB) leukemia, in the experiment with MALME-3M melanoma, in the experiment with NCI-H23 lung, in the experiment on OVCAR-3 ovarian, in the experiment on SF-268 CNS and in the experiment with SF-295 CNS was over 100 µM each time. Moreover, the TGI in the experiment on SN12C renal and with SNB-75 CNS was over 100 µM throughout.

As for `Cc1c(N(Cc2ccccc2)Cc2ccccc2)nc(S(C)(=O)=O)nc1S(C)(=O)=O`, the TGI in the experiment with HL-60(TB) leukemia worked out at 4.28 µM; with MALME-3M melanoma it was 17.6 µM; with NCI-H23 lung it was 3.35 µM; with OVCAR-3 ovarian, 3.36 µM; in the experiment with SF-268 CNS, 3.74 µM; with SF-295 CNS it was 31.5 µM. Moreover, the TGI with SN12C renal was 4.28 µM; in the experiment with U251 CNS, 6.64 µM.

On to `O=C(Nc1nc2ccc([N+](=O)[O-])cc2s1)c1cc([N+](=O)[O-])ccc1Cl`, for which the TGI in the experiment on MALME-3M melanoma turned out to be 10.4 µM; in the experiment with NCI-H23 lung, 6.92 µM; in the experiment on OVCAR-3 ovarian it was 9.64 µM; in the experiment on SF-268 CNS it was 11.7 µM; with SF-295 CNS it was 14.8 µM; in the experiment on SN12C renal it was 4.57 µM. Further, the TGI worked out at 9.61 µM with SNB-75 CNS and 12.1 µM in the experiment with U251 CNS.

With `COC(=O)C1CCC(=S)N1C(C)=O` (stereo unspecified), the TGI in the experiment on MALME-3M melanoma, in the experiment with NCI-H23 lung, in the experiment on OVCAR-3 ovarian, in the experiment on PC-3 prostate, with SF-268 CNS and with SF-295 CNS was over 100 µM each time. In addition, the TGI in the experiment on SNB-75 CNS and in the experiment on U251 CNS was over 100 µM throughout.

Take `Oc1[nH]c2ccccc2c1N=Nc1nc(-c2ccccc2)cs1`: the TGI was over 100 µM with NCI-H23 lung; over 100 µM with OVCAR-3 ovarian; 51.8 µM in the experiment with PC-3 prostate; 63.1 µM in the experiment on SF-295 CNS; over 100 µM in the experiment on SN12C renal; 41.3 µM in the experiment with SNB-75 CNS. In addition, in the experiment on U251 CNS, the TGI is over 100 µM.

As for `Cc1ccc(C)c(C(=O)CC2OC(O)C(Cl)C2Cl)c1` (stereo unspecified), the concentration for total growth inhibition (TGI) in the experiment with HL-60(TB) leukemia is 95.7 µM; in the experiment with MALME-3M melanoma, over 100 µM; in the experiment on NCI-H23 lung it was over 100 µM; with OVCAR-3 ovarian it was over 100 µM; with SF-268 CNS, over 100 µM; in the experiment with SF-295 CNS it was over 100 µM. The TGI with SN12C renal, in the experiment with SNB-75 CNS and with U251 CNS was over 100 µM each time.

On to `COC1=C(C)C(=O)C2=C(C1=O)C1C3CC4=C(C(=O)C(OC)=C(C)C4=O)C(CNC(=O)C(C)=O)N3C(C#N)C(C2)N1C` (stereo unspecified), for which the TGI is 0.00533 µM and 0.0414 µM and < 0.0468 µM in the experiment with OVCAR-3 ovarian; 0.195 µM and 0.0778 µM with PC-3 prostate; 0.253 µM and 0.383 µM with SF-295 CNS; 0.348 µM and 0.144 µM in the experiment with SN12C renal. Moreover, the GI50 (in general, the concentration giving 50% growth inhibition) with SF-295 CNS is 0.000966 µM.
